Assay results: patent US10285977B2, “Compositions and methods for treating alopecia” (David Weinstein Consulting, Inc., priority 2015, dated 2019)

Assays:
mouse dorsal skin = assay: Punch biopsies of mouse dorsal skin treated topically with RT175; format: in vivo, mice
Experimental: Mice underwent 5 millimeter, full thickness, punch biopsies of their dorsal skin. Mice were then treated topically with 120 nanograms (“ng”) of RT175, daily.

hair = conditions: rats after craniotomy prior to neurosurgery; cited from earlier work
hair growth = conditions: shaved mice; cited from earlier work
FKBP52 = target: T1, FKBP52 (Homo sapiens, UniProt Q02790); conditions: fibroblasts treated for 2 hours; cited from earlier work
T1 construct: endogenous in cells
T1 sequence (Q02790 1-459): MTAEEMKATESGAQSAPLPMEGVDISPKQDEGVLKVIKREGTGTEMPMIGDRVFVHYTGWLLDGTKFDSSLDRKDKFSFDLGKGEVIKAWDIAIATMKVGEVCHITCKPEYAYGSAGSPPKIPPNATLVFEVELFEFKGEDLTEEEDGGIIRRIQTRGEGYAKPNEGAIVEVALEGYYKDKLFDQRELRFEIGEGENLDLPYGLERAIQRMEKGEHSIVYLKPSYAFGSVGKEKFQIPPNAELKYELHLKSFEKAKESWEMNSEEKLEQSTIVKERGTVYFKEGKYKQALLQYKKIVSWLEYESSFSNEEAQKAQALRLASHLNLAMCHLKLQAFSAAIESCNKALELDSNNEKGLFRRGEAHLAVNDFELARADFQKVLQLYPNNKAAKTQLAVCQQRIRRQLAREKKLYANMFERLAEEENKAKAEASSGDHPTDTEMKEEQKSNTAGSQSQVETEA

scalp = assay: Scalp closure following craniotomy in rats treated with RT175; format: in vivo; conditions: RT175 treatment
Excerpt: Rats which had undergone brain surgery to test RT175 mediated regeneration of the brain following stroke. Following surgery, the scalp was closed.

[1] = target: T2, FK506 binding protein 4 (“FKBP52”) (Homo sapiens, UniProt Q02790); conditions: cited from earlier work
T2 sequence (Q02790 1-459): T1 sequence (Q02790 1-459)

androgenic alopecia = assay: person with androgenic alopecia treated topically with RT175 and RT175/minoxidil; format: in vivo, human; conditions: 4 months; 120 ng/mL RT175, 1 mL twice daily on crown
Experimental: The subject went on treatment holiday for 1 month, before beginning treatment with 120 ng/mL of RT175 and 5% w/v minoxidil in 30% w/v ethanol, 50% w/v propylene glycol and 20% w/v water. FIG. 4(c) depicts the subjects scalp before initiation of the second round of treatment.

skin lesions = assay: Skin lesions in pig treated topically with RT175; format: in vivo; conditions: single pig, 120 ng topically daily
Experimental: A single pig underwent bilateral, slit thickness, skin surgery leaving lesions on opposite sides of the pig. One of these lesions was then treated topically with 120 ng of RT175, daily. The other lesion was treated with vehicle only. […] See FIG. 3 and compare 3(b) to 3(a). The de novo hair growth is consistent with the regeneration of the upper hair follicles, most of which would have been removed as the […] sliced through the skin in creating the split thickness wounds.

[2] = tested on: dermabrasion lesions of dorsal skin; assay: Dermabrasion lesions of dorsal skin of mice treated with RT1061; format: in vivo, ICR mice; conditions: 5 μL of 100 nanomolar topically once daily, 10 days
Experimental: Retired ICR breeder mice of both sexes with weight between 45 and 50 grams were shaved and rasped to induce dermabrasion lesions. The animals were then randomly assigned (5 per treatment arm) to one of two groups to receive either 5 μL of 100 nanomolar RT1061 or a vehicle control. RT1061 or vehicle control was applied topically to the lesion site once each day including immediately after dermabrasion.

androgenetic alopecia = conditions: at 6-months, cited from earlier work

In the case of `CCC(C)(C)C(=O)C(=O)N1CCC[C@H]1C(=O)O` [RT175], the “healing of the wound site versus vehicle” value (mouse dorsal skin; 5 days after punch biopsy, 120 ng RT175 topically daily) is reported as “clearly accelerated”, the “treated wounds completely closed” value (mouse dorsal skin; 9 days after punch biopsy, 120 ng topically daily) is reported as 80% and the “hair regeneration in the wound” value (mouse dorsal skin; 9 days after punch biopsy, intact follicles even in the middle of the wound) is reported as “robust hair regeneration”. For the same molecule, the “time for the other 20% of treated wounds to close” value (mouse dorsal skin; after day 9, 120 ng topically daily) was at most 18 h, the hair regrowth (hair) was “re-grow hair” and the hair growth (hair growth) was “induce hair growth”. The FKBP52 localisation (FKBP52) was “translocation of FKBP52 to the nucleus”, the “scalp closure after brain surgery” value (scalp) was “full scalp closure” and the binding affinity [1] was “high affinity”. The hair growth (androgenic alopecia) was “absence of hair growth”, the “hair regeneration in the lesion” value (skin lesions) was “regeneration of hair” and the “lesion healing versus vehicle-treated lesion” value (skin lesions) was “early and transient appearance of granulation tissue, followed by rapid revascularization, invasion of newly formed skin from wound edges, accelerated repigmentation”.

For `CCC(C)(C)C(=O)C(=O)N1CCCC1Cc1ccccc1` (stereo not shown) [RT1061], the hair growth [2] was “rapid hair growth” and the skin regeneration [2] was “rapid regeneration of rasped skin”.

For `Nc1cc(N2CCCCC2)nc(N)[n+]1[O-]` [minoxidil], the “treated individuals who maintained existing hair with no additional loss” value (androgenetic alopecia) is given as 50% and the “treated individuals with new hair growth” value (androgenetic alopecia; minoxidil treatment) is given as 15%.
